Values of other authors, collected in patent US20070112055A1, “Crystalline forms of almotriptan and processes for their preparation” (Glenmark Pharmaceuticals Limited, priority 2005, published 2007).

Assays:
[1] = target: 5-HT1B receptors (Homo sapiens, UniProt P28222); settings: general statement of the related art
[2] = target: T1, 5-HT1A receptors (Homo sapiens, UniProt P08908); settings: general statement of the related art
T1 sequence (P08908 1-422): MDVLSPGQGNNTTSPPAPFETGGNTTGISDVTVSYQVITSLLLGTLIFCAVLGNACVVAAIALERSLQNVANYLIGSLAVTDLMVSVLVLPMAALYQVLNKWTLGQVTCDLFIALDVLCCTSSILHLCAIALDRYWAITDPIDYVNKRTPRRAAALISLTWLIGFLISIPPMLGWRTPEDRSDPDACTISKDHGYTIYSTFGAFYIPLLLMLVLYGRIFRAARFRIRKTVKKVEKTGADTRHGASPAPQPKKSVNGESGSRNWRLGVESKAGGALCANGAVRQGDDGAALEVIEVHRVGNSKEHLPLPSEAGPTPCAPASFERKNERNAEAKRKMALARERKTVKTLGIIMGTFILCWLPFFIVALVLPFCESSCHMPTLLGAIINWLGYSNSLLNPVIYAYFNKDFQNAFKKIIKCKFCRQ

[3] = target: T2, 5-HT1F receptors (Homo sapiens, UniProt P30939); settings: general statement of the related art
T2 sequence (P30939 1-366): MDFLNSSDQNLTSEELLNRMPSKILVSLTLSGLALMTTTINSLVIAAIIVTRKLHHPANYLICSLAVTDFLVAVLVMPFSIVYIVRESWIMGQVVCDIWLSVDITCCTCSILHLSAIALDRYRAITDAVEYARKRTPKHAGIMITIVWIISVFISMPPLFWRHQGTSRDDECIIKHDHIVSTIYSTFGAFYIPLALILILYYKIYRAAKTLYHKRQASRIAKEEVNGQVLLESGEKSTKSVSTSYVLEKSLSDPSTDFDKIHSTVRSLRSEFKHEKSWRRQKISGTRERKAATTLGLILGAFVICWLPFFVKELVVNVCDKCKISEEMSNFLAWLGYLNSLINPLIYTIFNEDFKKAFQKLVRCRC

[4] = target: 5-HT1D receptors (Homo sapiens, UniProt P28221); settings: general statement of the related art
[5] = target: 5-HT7 receptors (Homo sapiens, UniProt P34969); settings: general statement of the related art
[6] = amorphous form compared with the crystalline forms

5-HT7 receptors, sequence (P34969 whole entry): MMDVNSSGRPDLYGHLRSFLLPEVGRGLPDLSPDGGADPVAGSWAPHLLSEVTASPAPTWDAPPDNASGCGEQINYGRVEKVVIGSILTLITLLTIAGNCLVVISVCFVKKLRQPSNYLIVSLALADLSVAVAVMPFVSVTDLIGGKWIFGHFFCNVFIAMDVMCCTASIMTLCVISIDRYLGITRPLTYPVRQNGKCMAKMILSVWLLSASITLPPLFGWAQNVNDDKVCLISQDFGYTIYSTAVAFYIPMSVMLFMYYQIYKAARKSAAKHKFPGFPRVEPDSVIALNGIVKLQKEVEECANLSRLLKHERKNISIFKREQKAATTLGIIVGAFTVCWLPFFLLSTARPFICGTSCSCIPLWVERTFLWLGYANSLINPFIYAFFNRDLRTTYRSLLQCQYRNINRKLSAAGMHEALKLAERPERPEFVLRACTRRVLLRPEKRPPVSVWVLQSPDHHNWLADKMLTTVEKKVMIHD
5-HT1B receptors, sequence (P28222 whole entry): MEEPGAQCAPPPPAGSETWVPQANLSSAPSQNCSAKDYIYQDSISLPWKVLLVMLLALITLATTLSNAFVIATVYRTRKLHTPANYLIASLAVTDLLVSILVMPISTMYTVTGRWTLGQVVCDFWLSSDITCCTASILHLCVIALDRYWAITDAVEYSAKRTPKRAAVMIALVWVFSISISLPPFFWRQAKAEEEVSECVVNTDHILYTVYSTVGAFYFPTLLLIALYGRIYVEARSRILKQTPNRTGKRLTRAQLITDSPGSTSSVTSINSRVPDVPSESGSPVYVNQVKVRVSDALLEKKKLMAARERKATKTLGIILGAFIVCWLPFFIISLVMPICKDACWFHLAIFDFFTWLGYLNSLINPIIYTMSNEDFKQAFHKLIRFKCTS
5-HT1D receptors, sequence (P28221 whole entry): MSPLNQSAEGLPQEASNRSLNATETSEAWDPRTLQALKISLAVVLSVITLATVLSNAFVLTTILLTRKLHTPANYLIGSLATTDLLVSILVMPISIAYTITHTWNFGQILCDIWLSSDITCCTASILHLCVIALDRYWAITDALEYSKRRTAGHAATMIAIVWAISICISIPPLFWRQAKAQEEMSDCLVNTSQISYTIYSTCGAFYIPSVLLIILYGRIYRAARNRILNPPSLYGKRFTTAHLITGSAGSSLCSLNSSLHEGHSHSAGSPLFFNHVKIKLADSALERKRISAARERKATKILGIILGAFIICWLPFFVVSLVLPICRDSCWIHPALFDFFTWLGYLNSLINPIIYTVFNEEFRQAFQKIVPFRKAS

| affinity to 5-HT1B receptors [1] | affinity for 5-HT1A receptors [2] | affinity to 5-HT1F receptors [3] | affinity to 5-HT1D receptors [4] | affinity for 5-HT7 receptors [5] | Structure (SMILES) | bioavailability [6] |
| --- | --- | --- | --- | --- | --- | --- |
| high affinity | weak affinity | high affinity | high affinity | weak affinity | CN(C)CCc1c[nH]c2ccc(CS(=O)(=O)N3CCCC3)cc12 [Almotriptan, 1-[[[3-[2-(dimethylamino)ethyl]indol-5-yl]methyl]sulfonyl]pyrrolidine] | – |
| – | – | – | – | – | CO/N=C(\C(=O)N[C@@H]1C(=O)N2C(C(=O)OC(C)OC(C)=O)=C(COC(N)=O)CS[C@H]12)c1ccco1 (stereo partly drawn) [cefuroxime axietil] | much higher bioavailability than the crystalline forms |
